One assay relates to STAT5. The experiment in a line: STAT5 signaling over increasing concentrations of lenalidomide. It counts as cell-based, human. The conditions noted are these: increasing lenalidomide concentration; CAR19 cells with mbdIL7.
The test system of another assay is IL-7. Kind of assay: Cytokine expression and soluble IL-7 in supernatant of CAR T cells cocultured with CD19+ Nalm6. Format: cell-based. An excerpt: FIGS. 13A-13C show mbdIL7 is cleaved from the T cell surface in a state-dependent manner.
The next assay concerns mbdIL7-Luc. The settings on record: mice. The protocol: The mdbIL7 was tagged with luciferase (mdbTL7-Luc), so mdbTL7 expression could be monitored in vivo. Mice were injected with Jurkat cells that were transduced with mdbIL7-Luc. The Jurkat mdbTL7-Luc cells were allowed to engraft for 25 days and then pomalidomide was administered to the mice (FIG. 14A).
For assay [1], the system named is T cells expressing a CD19 CAR. Kind of assay: Expansion/activation of CAR T cells in production with or without exogenous IL-2 (population doublings). It counts as cell-based, human. The settings on record: CAR19 mbdIL7 without exogenous IL-2 vs CAR19 cells induced with IL-2. On the procedure:
CAR19 T cells and mbdTL7 CAR19 T cells were cultured with and without exogenous IL-2. […] This was shown for two different types of cancer cells, Nalm6 and K562.

Consider `Nc1cccc2c1CN(C1CCC(=O)NC1=O)C2=O` (stereo not drawn) [lenalidomide], for which the pSTAT5 expression result with STAT5 was “a decrease in pSTAT5 expression”. Besides, the “effect of lenalidomide on IL-7 cleavage without antigen exposure” value in the assay on IL-7 (CAR19 mbdIL7 not experiencing antigen exposure) is on record as “no appreciable effects”. In the assay on IL-7 (CAR19 mbdIL7 with antigen exposure), the “control of cleavage of IL-7 from the T cell surface by lenalidomide” value is “effectively controlled by lenalidomide in a dose-dependent manner”.

`Nc1cccc2c1C(=O)N(C1CCC(=O)NC1=O)C2=O` (stereo not drawn) [pomalidomide]: the “decrease of mdbIL7-luc expression” value in the assay with mbdIL7-Luc (6 hours after administration of pomalidomide) is given as “more than 10 fold”. In the assay on mbdIL7-Luc (by 24 hours after pomalidomide administration), the mdbIL7-luc expression entry is reported as “returned to levels similar to pre-administration”.

B1: mbdIL7: T cell factor: human IL-7, a CD80 hinge and transmembrane domain, and a lenalidomide-responsive zinc finger degron domain (protein)
chain: MLLLVTSLLLCELPHPAFLLIPEQKLISEEDLDCDIEGKDGKQYESVLMVSIDQLLDSMKEIGSNCLNNEFNFFKRHICDANKEGMFLFRAARKLRQFLKMNSTGDFDLHLLKVSEGTTILLNCTGQVKGRKPAALGEAQPTKSLEENKSLKEQKKLNDLCFLKRLLQEIKTCWNKILMGTKEHWNTTKQEHFPDNLLPSWAITLISVNGIFVICCLTYCFAPRCRERRRNERLRRESVRPVGSGSGSGSGGFNVLMVHKRSHTGERPLQCEICGFTCRQKGNLLRHIKLHTGEKPFKCHLCNYACQRRDAL
Take B1: the “CAR19 cell doubling time / expansion rate” value in assay [1] is given as “not significantly affected”.

These data come from patent publication US20250186496A1, “METHODS AND COMPOSITIONS FOR CONTROLLING T CELL ACTIVATION” (The General Hospital Corporation, priority 2022, published 2025).
